The results in this text go back to US7485640B2, “Imidazopyrazinones as GABA-A receptor anxiolytics” (Merck Sharp & Dohme Limited, priority 2002, dated 2009).

In turn, `CN1CCn2c(-c3ccc(F)c(-c4ccc(F)cc4C#N)c3)cnc2C1=O` [Example 22, 4,2′-Difluoro-5′-(7-methyl-8-oxo-5,6,7,8-tetrahydroimidazo[1,2-a]pyrazin-3-yl)biphenyl-2-carbonitrile] showed a melting point of 224 °C.

The term melting point denotes the temperature of the solid-liquid transition.
